Data taken from BindingDB's records for doi:10.1021/jm950699x (Rhône-Poulenc Rorer, 1996).

Target: Leukotriene B4 receptor (Cavia porcellus)
Experiment: Compound was evaluated for Leukotriene B4 receptor binding, obtained from radioligand binding assay using guinea pig spleen cell membrane

Question: With `CCOC(=O)/C=C/c1cn(CC(=O)N(C)CCc2ccccc2)c2ccc(OCc3ccccc3)cc12` [(E)-3-{5-Benzyloxy-1-[(methyl-phenethyl-carbamoyl)-methyl]-1H-indol-3-yl}-acrylic acid ethyl ester] as the compound, how does the IC50 read?
Answer: > 300 nM
